The record followed here is ChEMBL document CHEMBL1201862, “PubChem BioAssay data set” (2004).

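Following 48 hours of exposure in 96-well plates, responses at five concentrations were used to interpolate endpoints linearly. GI50 = concentration required for 50% inhibition of growth.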 Calls of active or inactive are those of the source. No stated cut-off is given here; in the data, active = GI50 up to about 1.1 µM and inactive = higher. Some results are limits rather than exact numbers.

What all share (experiment): NCI tumour cell line growth inhibition, 48 h
Test [1] deals with 786-0.
Test [2] relates to ACHN.
Test [3] has as its system HCT-116.
In test [4] the test system is LOX IMVI.
Test [5] concerns MCF7.
Test [6] relates to MDA-MB-435.
In test [7] the test system is MDA-N.
In test [8] the test system is NCI/ADR-RES.
In test [9] the test system is OVCAR-3.
In test [10] the test system is SR.
For test [11], the system named is T47D.
In test [12] the test system is TK-10.
In test [13] the test system is UO-31.
For test [14], the system named is SF-268.
For test [15], the system named is DLD-1.
Test [16] concerns KM-20L2.
Test [17] deals with SNB-78.

For `O=S(=O)(c1ccc(I)cc1)N(c1ccccc1)S(=O)(=O)C(F)(F)C(F)(F)C(F)(F)C(F)(F)F`, the GI50 is 45.7 µM (inactive) in test [1]; 58.2 µM (inactive) in test [2]; 19.9 µM (inactive) in test [3]; 96.2 µM (inactive) in test [4]; 26.9 µM (inactive) in [5]; > 100 µM (inactive) in [6]. Moreover, the GI50 in test [7] was 60.1 µM (inactive); in [8], 43.3 µM (inactive); in [9] it was 22.6 µM (inactive); in test [10], 56.5 µM (inactive); in [11], 35.5 µM (inactive); in test [12], 14.2 µM (inactive). The GI50 in test [13] is 55.8 µM (inactive).
`CC(=O)Oc1ccccc1[C@H]1CC(=O)C[C@H](c2ccccc2OC(C)=O)C12C(=O)c1ccccc1C2=O`: the GI50 in test [3] is 29.4 µM (inactive); in test [6], 14.7 µM (inactive); in test [7], 16 µM (inactive); in test [8], 29.2 µM (inactive); in test [9] it was 22.1 µM (inactive); in test [10] it was 79.4 µM (inactive). In addition, the GI50 in test [11] was 40.2 µM (inactive); in [13] it was 36.3 µM (inactive).
For `COc1ccc(C(O)CNC(=O)c2ccccc2)cc1` (configuration not stated), the GI50 in test [1], in test [2], in [3], in test [4], in test [5] and in test [6] was > 100 µM (inactive) throughout. Besides, the GI50 in test [7], in [8], in [9], in test [14], in test [10] and in [11] was > 100 µM (inactive) each time. Further, in test [12], the GI50 was > 100 µM (inactive).
As to `CCc1n[nH]c(=O)n1CC`, the GI50 in test [1], in test [2], in [3], in test [4], in [5] and in test [6] was > 100 µM (inactive) in each case. Besides, the GI50 in [7], in test [8], in [9], in test [14], in test [10] and in test [11] was > 100 µM (inactive) each time. For the same compound, the GI50 in test [12] and in [13] was > 100 µM (inactive) throughout.
Regarding `COc1ccccc1-c1cc(O)c2cc(C)cnc2n1`, the GI50 is 68.7 µM (inactive) in [2]; 46 µM (inactive) in test [4]; 47.5 µM (inactive) in test [5]; 3.8 µM (inactive) in [6]; 15 µM (inactive) in [8]; 52.7 µM (inactive) in test [14]. In addition, the GI50 in [10] is > 100 µM (inactive); in test [11] it was 63.4 µM (inactive); in test [12] it was > 100 µM (inactive); in [13] it was 47.9 µM (inactive).
As for `COc1ccccc1/C=C1\S/C(=N/Nc2nc(C)c(C(C)=O)s2)NC1=O`, the GI50 in test [1] was 29.4 µM (inactive); in test [2], 49.1 µM (inactive); in test [3], 43.3 µM (inactive); in [4] it was 43.2 µM (inactive); in test [5] it was 25.6 µM (inactive); in [6], 32.6 µM (inactive). Besides, the GI50 was 29.9 µM (inactive) in test [7]; 43.8 µM (inactive) in test [8]; 26.9 µM (inactive) in [9]; 22.8 µM (inactive) in test [14]; 31 µM (inactive) in [10]; 25.6 µM (inactive) in [11]. Also, the GI50 in [12] is 40.6 µM (inactive); in test [13], 37.2 µM (inactive).
On to `CCCCSCCC(N)P(=O)(O)O` (configuration not stated), for which the GI50 in [2], in test [3], in test [4], in [5], in [6] and in test [7] was > 100 µM (inactive) in each case. The GI50 in test [8], in test [9], in [10], in test [11], in test [12] and in [13] was > 100 µM (inactive) in each case.
On to `COc1ccc(CCn2nccc2C)cc1`, for which the GI50 in test [2], in [3], in [4], in test [5], in [6] and in test [7] was > 100 µM (inactive) throughout. Besides, the GI50 in test [8] was > 100 µM (inactive); in [9], > 100 µM (inactive); in [14], > 100 µM (inactive); in test [10] it was > 100 µM (inactive); in [11], 74.1 µM (inactive); in [12], > 100 µM (inactive). The GI50 in test [13] is 59.6 µM (inactive).
In the case of `COc1cccc(-c2c(C#N)c(N)nc3c2CCS(=O)(=O)c2ccc(C)cc2-3)c1`, the GI50 in test [1] was 61.7 µM (inactive); in [2], > 100 µM (inactive); in test [3], > 100 µM (inactive); in [4], > 100 µM (inactive); in [6], > 100 µM (inactive); in [7], > 100 µM (inactive). The GI50 in [8] was > 100 µM (inactive); in [9] it was > 100 µM (inactive); in test [14], > 100 µM (inactive); in test [10], 40.6 µM (inactive); in test [11], > 100 µM (inactive); in test [12], > 100 µM (inactive). The GI50 in test [13] is > 100 µM (inactive).
Turning to `c1ccc(C2=NNC3c4ccccc4-c4ccccc4N3C2)cc1` (configuration not stated), the GI50 was 50 µM (inactive) in test [1]; 31.8 µM (inactive) in [2]; 34 µM (inactive) in test [3]; 28.6 µM (inactive) in test [4]; 14.7 µM (inactive) in test [5]; 27.8 µM (inactive) in test [6]. Moreover, the GI50 is 33.5 µM (inactive) in test [7]; 31.8 µM (inactive) in [8]; 37.5 µM (inactive) in test [9]; 44.9 µM (inactive) in [14]; 21.1 µM (inactive) in [10]; 23.5 µM (inactive) in test [11]. In addition, the GI50 in [12] was 33.7 µM (inactive); in test [13] it was 32.4 µM (inactive).
`Clc1ccc(C2ON=C(c3ccccc3)N2C23CC4CC(CC(C4)C2)C3)c(Cl)c1` (configuration not stated): the GI50 in test [1], in test [2], in [3], in test [4], in test [5] and in [6] was > 10 µM (inactive) in each case. For the same compound, the GI50 in [7], in [8], in [9], in test [14], in [11] and in test [12] was > 10 µM (inactive) throughout. For the same compound, in test [13], the GI50 is > 10 µM (inactive).
With `Cc1ccc2c3c1O[C@H]1c4[nH]c5ccccc5c4C[C@@]4(O)[C@@H](C2)N(CC2CC2)CC[C@]314`, the GI50 was 13.8 µM (inactive) in test [1]; 16.6 µM (inactive) in [2]; 14.5 µM (inactive) in test [3]; 15.9 µM (inactive) in test [4]; 16.4 µM (inactive) in [5]; 13.7 µM (inactive) in test [6]. In addition, the GI50 was 16.2 µM (inactive) in test [7]; 19.1 µM (inactive) in test [8]; 14.4 µM (inactive) in [9]; 13.6 µM (inactive) in [14]; 8.89 µM (inactive) in test [10]; 17.6 µM (inactive) in test [11]. For the same compound, the GI50 in [12] was 17.3 µM (inactive); in test [13], 13.4 µM (inactive).
As to `COc1cccc(CCn2c(N)c(-c3cc(Cl)cc(Cl)c3)c3ccc([N+](=O)[O-])cc3c2=O)c1`, the GI50 in test [1] is 4.91 µM (inactive); in test [2], 3.26 µM (inactive); in test [3], 2.84 µM (inactive); in [4] it was 3.61 µM (inactive); in [5], 4.62 µM (inactive); in [6], 3.57 µM (inactive). Moreover, the GI50 in test [7] was 4.53 µM (inactive); in [8], 3.27 µM (inactive); in test [9], 3.13 µM (inactive); in test [14] it was 5.86 µM (inactive); in test [10] it was 0.897 µM (active); in [11], 2.78 µM (inactive). The GI50 in [12] was 4.28 µM (inactive); in test [13], 2.68 µM (inactive).
For the compound `COc1ccc(-c2cc(-c3ccccc3)c3c(n2)-c2ccccc2NC(=O)C3)cc1`, the GI50 in [1] was 29 µM (inactive); in test [2] it was 35.1 µM (inactive); in test [3], 25.5 µM (inactive); in [4] it was 65.6 µM (inactive); in test [5] it was 39.4 µM (inactive); in test [6], > 100 µM (inactive). For the same compound, the GI50 in test [7] was 30 µM (inactive); in [8], 36.5 µM (inactive); in [9], 30.1 µM (inactive); in test [14], 23.7 µM (inactive); in test [11], 74 µM (inactive); in test [12], 41.8 µM (inactive). Further, the GI50 in test [13] is > 100 µM (inactive).
Consider `Cc1n(CC(=O)c2ccc([N+](=O)[O-])cc2)c2c([n+]1CC(C)C)C(=O)c1ccccc1C2=O`, for which the GI50 is < 0.0394 µM (active) in [15]; < 0.02 µM (active) in [3]; < 0.01 µM (active) in test [16]; < 0.01 µM (active) in test [4]; < 0.01 µM (active) in test [5]; < 0.0424 µM (active) in [9]. Moreover, the results for the GI50 in test [14], in test [17] and in test [13] were < 0.01 µM (active), < 0.0137 µM (active) and 16.1 µM (inactive), respectively.
